The test system of one data set is Kasumi-1 cells. Briefly: Cell proliferation activity assay in Kasumi-1. The conditions noted are these: Homo sapiens, inhibiting cell proliferation, 72 hours, Cell-Titer Blue. It counts as cell-based. The protocol: (§1) Human acute myeloblastic leukemia cell line Kasumi-1 cells were cultured in PRIM1640 medium plus 20% fetal bovine serum (FBS, purchased from Biological Industries, BI) and 1% penicillin/streptomycin double antibody (P/S, purchased from Life Technology) at 37° C. with 5% CO2. On the day before the compound test, Kasumi-1 cells were spread in a 96-well plate (purchased from Corning) at a concentration of 5000 cells/195 μL/well. After 24 hours, the compound was serially diluted 4-fold with 100% DMSO starting from 10 mM (9 concentrations in total), and then 2 μL of the compound at each concentration was added to 48 μL of PRIM1640 medium for dilution. 5 μL of the diluted compound at each concentration was added to the wells spread with the cell suspension, and the compound and cells were co-incubated in a cell incubator for 72 hours (3 days). Then the mixture was added with 35 μL of Cell-Titer Blue reagent (purchased from Promega) and incubated for another 4 hours. The fluorescence values (excited at 560 nm, detected at 590 nm) were then read on Flexstation III, and the data were calculated using GraphPad Prism software to give IC50 value of the compound in inhibiting cell proliferation.

The subject of a further data set is MV4-11 cells. Nature of the data set: Cell proliferation activity assay in MV4-11. It counts as cell-based. Conditions: Homo sapiens, inhibiting cell proliferation, 72 hours, Cell-Titer Blue. The protocol: as §1, with “lymphoblastic” for “myeloblastic”, “MV4-11” for “Kasumi-1”, “10%” for “20%”, “8000” for “5000”
Data set [1] is described as follows: Animal pharmacokinetic study on compounds. In kind it is in vivo. The conditions noted are these: rat, po; male rats, single intragastric administration, 5 mg/kg, plasma. The protocol:
Three healthy adult male rats that obtained from Beijing Vital River Laboratory Animal Technology Co., Ltd were used for the animal pharmacokinetic experiment. A compound was suspended in 2% absolute ethanol, 5% tween 80, 20% polyethylene glycol 400, and 73% (5% hydroxypropylmethyl cellulose in water) (V/V/V/V) at a concentration of 1 mg/mL. The administration volume was 5 mL/kg, and animals were treated with a single intragastric administration at a dose of 5 mg/kg. Animals were fasted overnight prior to the experiment, and the fasting time was from 10 hours before administration to 4 hours after administration. Blood was sampled at 0.25, 0.5, 1, 2, 4, 6, 8 and 24 hours after administration. Animals were lightly anesthetized with isoflurane, and approximately 0.4 mL of whole blood was collected from the orbital venous plexus using a glass blood collection tube, and placed in a heparin anticoagulation tube. The sample was centrifuged at 4200 rpm for 5 minutes at 4° C., and then the plasma was transferred to a centrifuge tube and stored at −80° C. until analyzed. In the plasma sample analysis, test compounds and internal standards (warfarin or propranolol) were extracted from rat plasma by acetonitrile protein precipitation, and the extracts were analyzed by LC/MS/MS. The measured plasma concentration-time data of the individual animals were analyzed using a non-compartmental model of WinNonlin (version no. 5.2.1; Pharsight) software to give pharmacokinetic parameters as shown in Table 3 below: the maximum (peak) plasma drug concentration Cmax; the time to peak Tmax; the half-life T1/2 and the area under the plasma concentration-time curve extrapolated to infinity AUC0-inf.

The next data set deals with BRD4 (BD2) (Homo sapiens (Human), UniProt O60885). Briefly: In vitro BRD4 (BD2) enzymatic activity assay (HTRF). In kind it is binding. The conditions noted are these: GST-BRD4 (BD2, 349-460 aa). The protocol:
In the present application, IC50 values of the compounds in inhibiting BRD4 (BD2) enzyme binding reaction were determined by homogeneous time resolved fluorescence (HTRF). A compound was serially diluted 5-fold with 100% DMSO starting from 1 mM (7 concentrations in total), and then 2 μL of the compound at each concentration was added to 18 μL of a reaction buffer (20 mM HEPES pH 7.5, 150 mM NaCl, 5 mM DTT, 0.005% Tween 20, and 100 μg/mL BSA) for dilution. After being mixed well, 2 μL of the compound at each concentration was added to 48 μL of the above reaction buffer for dilution, and mixed well (final concentration of the compound in DMSO: 0.1%). 2.5 μL of the resulting mixture was added to a 384-well plate (OptiPlate-384, purchased from PerkinElmer), then 5 μL of GST-BRD4 (BD2, 349-460 aa) (final concentration: 2 nM) was added, and the resulting mixture was centrifuged, and fully mixed. 2.5 μL of a peptide Biotin-AHA-SGRGK(Ac)GGK(Ac)GLGK(Ac)GGAK(Ac) RHRKV (final concentration: 200 nM) was then added to initiate the reaction (total reaction volume: 10 μL). The 384-well plate was placed in an incubator at 23° C. to react for 1 hour, and then 5 μL of Eu3+ cryptate-labled anti-GST antibody (purchased from Cisbio) and 5 μL of Streptavidin-XL-665 (purchased from Cisbio) were added to terminate the reaction. After being incubated in the incubator for another 1 hour, the fluorescence values (excited at 320 nm, emitted light at 665 nm and 620 nm being detected, and the ratio of the two being the enzyme binding signal) were read on Envision (purchased from PerkinElmer). The binding strength of each compound to BRD4 (BD2) protein was determined respectively at 7 concentrations, and the data were calculated using GraphPad Prism software to obtain the IC50 value of the compound.
(In general: TR-FRET usually uses a lanthanide donor and a delayed reading to cut background.)

A further data set has as its target BRD4 (BD1) (Homo sapiens (Human), UniProt O60885). Briefly: In vitro BRD4 (BD1) enzymatic activity assay (HTRF). In kind it is binding. The conditions noted are these: GST-BRD4 (BD1, 44-168 aa). The protocol: In the present application, IC50 values of the compounds in inhibiting BRD4 (BD1) enzyme binding reaction were determined by homogeneous time resolved fluorescence (HTRF). A compounds was serially diluted 5-fold with 100% DMSO starting from 0.2 mM (7 concentrations in total), and then 2 μL of the compound at each concentration was added to 48 μL of a reaction buffer (20 mM HEPES pH 7.5, 150 mM NaCl, 5 mM DTT, 0.005% Tween 20, and 100 μg/mL BSA) for dilution, and mixed well. 2.5 μL of the resulting mixture was added to a 384-well plate (OptiPlate-384, purchased from PerkinElmer), then 5 μL of GST-BRD4 (BD1, 44-168 aa) (final concentration: 1 nM) was added, and the resulting mixture was centrifuged, and fully mixed. 2.5 μL of a short peptide Biotin-AHA-SGRGK(Ac)GGK(Ac)GLGK(Ac)GGAK(Ac) RHRKV (final concentration: 100 nM) was then added to initiate the reaction (total reaction volume: 10 μL). The 384-well plate was placed in an incubator at 23° C. to react for 1 hour, and then 5 μL of Eu3+ cryptate-labled anti-GST antibody (purchased from Cisbio) and 5 μL of Streptavidin-XL-665 (purchased from Cisbio) were added to terminate the reaction. After being incubated in the incubator for another 1 hour, the fluorescence values (excited at 320 nm, emitted light at 665 nm and 620 nm being detected, and the ratio of the two being the enzyme binding signal) were read on Envision (purchased from PerkinElmer). The binding strength of each compound to BRD4 (BD1) protein was determined respectively at 7 concentrations, and the data were calculated using GraphPad Prism software to obtain the IC50 value of the compound.

`Cn1cc(-c2cc(N=S(C)(C)=O)ccc2Oc2ccc(F)cc2F)c2cc[nH]c2c1=O` [Example 5, 4-{2-(2,4-difluorophenoxy)-5-{[dimethyl(oxo)-λ^6-sulfanylidene]amino}phenyl}-6-methyl-1,6-dihydro-7H-pyrrolo[2,3-c]pyridin-7-one]: the IC50 (in general, the concentration that gives 50% inhibition) in the data set with Kasumi-1 cells came out at 15.4 nM; with MV4-11 cells, 9.8 nM; against BRD4 (BD2), 0.66 nM; at BRD4 (BD1), 4.8 nM. Moreover, in data set [1], the AUC(0-inf) (in general, total exposure, with the tail of the curve extrapolated) is 2690 ng·h/mL. Besides, the highest level in data set [1] (Cmax) was 610 ng/mL. For the same molecule, the time to peak (Tmax) – broadly, the time from dosing to the highest level – in data set [1] came to 1 h. For the same molecule, the half-life (as a rule, the time needed for the level to fall by half in the phase considered) in data set [1] is 2.9 h.

Take `Cn1cc(-c2cc(N=S(C)(C)=O)cnc2Oc2ccc(F)cc2F)c2cc[nH]c2c1=O` [Example 4, 4-{2-(2,4-difluorophenoxy)-5-{[dimethyl(oxo)-λ^6-sulfanylidene]amino}-pyridin-3-yl}-6-methyl-1,6-dihydro-7H-pyrrolo[2,3-c]pyridin-7-one]: the 50% inhibitory concentration (IC50) in the data set on Kasumi-1 cells amounted to 4.4 nM; in the data set on MV4-11 cells it was 8.3 nM; on BRD4 (BD2), 0.35 nM; at BRD4 (BD1) it was 0.93 nM. Besides, the total exposure AUC(0-inf) in data set [1] was determined as 2300 ng·h/mL. Moreover, the Cmax (commonly the highest concentration seen after dosing) in data set [1] came out at 459 ng/mL. For the same molecule, the Tmax in data set [1] was found to be 0.83 h. This molecule had a half-life in data set [1] of 2.94 h.

Take `Cn1cc(-c2cc(N=S(C)(C)=O)ccc2Oc2ccc(S(C)(=O)=O)cc2)c2cc[nH]c2c1=O` [Example 3, 4-{5-{[dimethyl(oxo)-λ^6-sulfanylidene]amino}-2-[4-(methylsulfonyl)phenoxy]phenyl}-6-methyl-1,6-dihydro-7H-pyrrolo[2,3-c]pyridin-7-one]: the IC50 with Kasumi-1 cells was 155 nM; with MV4-11 cells, 30.9 nM; on BRD4 (BD2), 0.45 nM; at BRD4 (BD1), 7.7 nM.

Turning to `Cn1cc(-c2nc(N=S(C)(C)=O)ccc2Oc2ccc(F)cc2F)c2cc[nH]c2c1=O` [Example 18, 4-{3-(2,4-difluorophenoxy)-6-{[dimethyl(oxo)-λ^6-sulfanylidene]amino}-pyridin-2-yl}-6-methyl-1,6-dihydro-7H-pyrrolo[2,3-c]pyridin-7-one], the IC50 in the data set with Kasumi-1 cells came out at 1.56 nM; with MV4-11 cells it was 3.14 nM. Moreover, the half-life in data set [1] was 5.25 h.

With `CCOC(=O)c1cc2c(-c3cc(N=S(C)(C)=O)ccc3Oc3c(C)cc(F)cc3C)cn(C)c(=O)c2[nH]1` [Example 14, Ethyl 4-{5-{[dimethyl(oxo)-λ^6-sulfanylidene]amino}-2-(4-fluoro-2,6-dimethylphenoxy)phenyl}-6-methyl-7-oxo-6,7-dihydro-1H-pyrrolo[2,3-c]pyridine-2-carboxylate], the IC50 was determined as 72 nM in the data set on Kasumi-1 cells, 139 nM with MV4-11 cells, 4 nM on BRD4 (BD2) and 27.9 nM at BRD4 (BD1).

With `Cc1cccc(Cl)c1Oc1ccc(N=S(C)(C)=O)cc1-c1cn(C)c(=O)c2[nH]ccc12` [Example 6, 4-{2-(2-chloro-6-methylphenoxy)-5-[dimethyl(oxo)-λ^6-sulfanylidene]aminophenyl}-6-methyl-1,6-dihydro-7H-pyrrolo[2,3-c]pyridin-7-one], the IC50 in the data set on Kasumi-1 cells was determined as 13.6 nM; in the data set on MV4-11 cells, 90.4 nM; against BRD4 (BD2), 0.93 nM; against BRD4 (BD1) it was 26.4 nM.

Take `CCNC(=O)c1cc2c(-c3cc(N=S(C)(C)=O)cnc3Oc3c(C)cccc3Cl)cn(C)c(=O)c2[nH]1` [Example 21, 4-{2-(2-chloro-6-methylphenoxy)-5-{[dimethyl(oxo)-λ^6-sulfanylidene]amino}-pyridin-3-yl}-N-ethyl-6-methyl-7-oxo-6,7-dihydro-1H-pyrrolo[2,3-c]pyridine-2-carboxamide]: the IC50 stood at 18 nM in the data set on Kasumi-1 cells, 138 nM in the data set with MV4-11 cells, 0.13 nM against BRD4 (BD2) and 10.7 nM against BRD4 (BD1).

Take `CCNC(=O)c1cc2c(-c3cc(N=S(C)(C)=O)ccc3Oc3c(C)cccc3Cl)cn(C)c(=O)c2[nH]1` [Example 7, 4-{2-(2-chloro-6-methylphenoxy)-5-{[dimethyl(oxo)-λ^6-sulfanylidene]amino}phenyl}-N-ethyl-6-methyl-7-oxo-6,7-dihydro-1H-pyrrolo[2,3-c]pyridine-2-carboxamide]: the IC50 in the data set with Kasumi-1 cells was found to be 2.3 nM; in the data set on MV4-11 cells it was 152 nM; at BRD4 (BD2), 0.34 nM; on BRD4 (BD1), 24.3 nM.

For the origin of these results see patent publication US12030880B2, “Iminosulfanone compound as bromodomain protein inhibitor and pharmaceutical composition and medical use thereof” (CHIA TAI TIANQING PHARMACEUTICAL GROUP CO., LTD., priority 2018, dated 2024).
